According to ChEMBL document CHEMBL5215008, “Bioactive Arylnaphthalide Lignans from Justicia depauperata” (J Nat Prod, 2022):
≈ marks a conversion by molar mass, not a printed value.

How the values were obtained:
Staphylococcus aureus [1] = experiment: Antibacterial activity against Staphylococcus aureus ATCC43300 assessed as bacterial growth inhibition incubated overnight by broth microdilution assay; format: functional
Staphylococcus aureus [2] = experiment: Antibacterial activity against Staphylococcus aureus ATCC25923 assessed as bacterial growth inhibition incubated overnight by broth microdilution assay; format: functional
Salmonella typhi = experiment: Antibacterial activity against Salmonella enterica subsp. enterica serovar Typhi CPC assessed as bacterial growth inhibition incubated overnight by broth microdilution assay; format: functional
Pseudomonas aeruginosa = experiment: Antibacterial activity against Pseudomonas aeruginosa HM801 assessed as bacterial growth inhibition incubated overnight by broth microdilution assay; format: functional
Klebsiella pneumoniae [3] = experiment: Antibacterial activity against Klebsiella pneumoniae clinical isolate assessed as bacterial growth inhibition incubated overnight by broth microdilution assay; format: functional
Klebsiella pneumoniae [4] = experiment: Antibacterial activity against Klebsiella pneumoniae NR41388 assessed as bacterial growth inhibition incubated overnight by broth microdilution assay; format: functional
Salmonella enterica = experiment: Antibacterial activity against Salmonella enterica NR13555 assessed as bacterial growth inhibition incubated overnight by broth microdilution assay; format: functional
KB 3-1 = experiment: Cytotoxicity against human KB 3-1 cells assessed as reduction in cell viability; format: functional, cell-based
[5] = Antioxidant activity assessed as inhibition of ABTS radical scavenging activity measured upto 6 mins; format: functional

Row | Compound | MIC (Staphylococcus aureus [1]) | MIC (Staphylococcus aureus [2]) | MIC (Salmonella typhi) | MIC (Pseudomonas aeruginosa) | MIC (Klebsiella pneumoniae [3]) | MIC (Klebsiella pneumoniae [4]) | MIC (Salmonella enterica) | IC50 (KB 3-1) | IC50 [5]
1 | CCCCOC1OC(=O)c2cc3ccc4c(c3c(-c3ccc5c(c3)OCO5)c21)OCO4 (stereo not drawn) | 125 µg/mL (≈ 297 µM) | 500 µg/mL (≈ 1190 µM) | 500 µg/mL (≈ 1190 µM) | 250 µg/mL (≈ 595 µM) | 500 µg/mL (≈ 1190 µM) | 500 µg/mL (≈ 1190 µM) | – | – | –
2 | COC1OC(=O)c2cc3ccc4c(c3c(-c3ccc(O)c(O)c3)c21)OCO4 (stereo not drawn) | 62.5 µg/mL (≈ 171 µM) | 62.5 µg/mL (≈ 171 µM) | 31.3 µg/mL (≈ 85.4 µM) | 31.3 µg/mL (≈ 85.4 µM) | 62.5 µg/mL (≈ 171 µM) | 62.5 µg/mL (≈ 171 µM) | 62.5 µg/mL (≈ 171 µM) | 4.1 µM | –
3 | GENTAMICIN | 0.07 µg/mL | 0.03 µg/mL | 0.05 µg/mL | 0.05 µg/mL | 0.03 µg/mL | 0.07 µg/mL | 0.07 µg/mL | – | –
4 | COc1cc([C@@H](O)[C@@H]2CO[C@H](c3ccc(O)c(OC)c3)[C@H]2CO)ccc1O [TANEGOOL] | 125 µg/mL (≈ 332 µM) | 500 µg/mL (≈ 1330 µM) | 31.3 µg/mL (≈ 83.2 µM) | 15.6 µg/mL (≈ 41.4 µM) | 62.5 µg/mL (≈ 166 µM) | 500 µg/mL (≈ 1330 µM) | 250 µg/mL (≈ 664 µM) | – | 41.2 µM
5 | Cc1c(C)c2c(c(C)c1O)CCC(C)(C(=O)O)O2 (stereo not drawn) [TROLOX] | – | – | – | – | – | – | – | – | 68 µM
6 | COc1ccc(C[C@H]2NC(=O)/C=C/C[C@@H]([C@H](C)[C@H]3O[C@@H]3c3ccccc3)OC(=O)[C@H](CC(C)C)OC(=O)C(C)(C)CNC2=O)cc1Cl [CRYPTOPHYCIN 52] | – | – | – | – | – | – | – | 1.3e-05 µM | –
7 | C=CCOC(=O)c1cc2ccc3c(c2c(-c2ccc4c(c2)OCO4)c1C=O)OCO3 | 500 µg/mL (≈ 1240 µM) | – | 500 µg/mL (≈ 1240 µM) | 125 µg/mL (≈ 309 µM) | 500 µg/mL (≈ 1240 µM) | – | – | – | –
8 | COC(=O)c1cc2ccc3c(c2c2c1C(=O)c1cc(O)c(O)cc1-2)OCO3 | – | – | – | – | – | – | 250 µg/mL (≈ 686 µM) | 9.5 µM | 84.5 µM
